Test results: patent publication US20070010664A1, “Gene expression in the central nervous system regulated by neuroleptic agents” (priority 2001, published 2007)

Tests used:
[1] = tested on: CLZ_40 (TTGT 266) mRNA in striatum and amygdala; assay: TOGA analysis of mRNA from brain of morphine-treated mice; format: in vivo, mouse
Description: For the morphine studies, male C57B1/6J mice (20-28 g) were housed as previously described in Example 1 and divided into the following groups: 1) a control group, in which the mice were subcutaneusly implanted with one placebo pellet upon halothane anaesthesia; 2) an acute morphine group, in which the mice received a morphine intraperitoneal injection of 10 mg/kg; 3) a chronic or tolerant group, in which mice were rendered drug-tolerant and dependent by means of subcutaneous implantation of a single pellet containing 75 mg of morphine free base for 3 days; and 4) a withdrawal group, in which the mice rendered tolerant to morphine were injected intraperitoneally with naltrexone 1 mg/kg. […] Their brains were rapidly removed. The striatum, including the nucleus accumbens, and block of tissues containing the amygdala complex were dissected under microscope and collected in ice-cold RNA extraction buffer.

[2] = tested on: CLZ_44 (SEQ ID NO:38) mRNA; assay: Northern blot analysis of CLZ_44 in striatum/nucleus accumbens; format: in vivo, mouse; settings: 2 weeks of treatment; clozapine 7.5 mg/kg, haloperidol 4 mg/kg, ketanserin 4 mg/kg
Description: FIG. 39 is a graphical representation of a Northern Blot analysis of clone CLZ—44 (ACGG 352) (SEQ ID NO:38), where an agarose gel containing poly A enriched mRNA from the striatum/nucleus accumbens of clozapine-treated mice as well as size standards was blotted after electrophoresis and probed with radiolabelled CLZ—44.
In further characterization of CLZ—44, Northern blot analyses were performed to determine the pattern of expression in the striatum/nucleus accumbens after 2 weeks of treatment of control mice, clozapine-treated mice, haloperidol-treated mice, and ketanserin-treated mice (FIG. 39). Ketanserin is a 5HT2A/2C—selective antagonist, and is used to determine serotonorgic involvement in these drug effects. FIG. 39 is a graphical representation of the described northern blot analyses.

[3] = tested on: mRNAs (DSTs) expressed in striatum/nucleus accumbens; assay: TOGA analysis of mRNA from striatum/nucleus accumbens of neuroleptic-treated mice (Table 1); settings: haloperidol experiment in duplicate, average
[4] = tested on: CLZ_40 (SEQ ID NO:12) mRNA; assay: Real Time PCR validation of CLZ_40; format: in vivo, mouse; settings: mice chronically (2 weeks) treated
Description: Validation of the DST expression for select DSTs was done by Real Time PCR using the ABI PRISM 7700 Sequence Detection System (PE Biosystems) that combines PCR, cycle-by-cycle fluorescence detection and analysis software for high-throughput quantitation of nucleic acid sequences. […] Standards for normalizing the quantitation of gene levels were chosen from a panel of 5 mouse “housekeeping” genes.

[5] = tested on: CLZ_43 (SEQ ID NO:37) mRNA; assay: Real Time PCR validation of CLZ_43; settings: clozapine 12 days; haloperidol 14 days; relative to untreated mice
[6] = tested on: mouse sequence homolog to human KIAA1451 (SEQ ID NO:79); assay: Real Time PCR of mouse sequence homolog to human KIAA1451; settings: mice chronically treated
apoD mRNA [7] = assay: In situ hybridization analysis of apoD (CLZ_5) in mouse brain; format: in vivo; settings: clozapine 7.5 mg/kg five days and two weeks: striatum, cortex, globus pallidus, thalamus, white matter tracts; haloperidol: gray or white matter regions
Description: In further characterization of CLZ—43, in situ hybridization analysis using an antisense cRNA probe directed against the 3′ end of CLZ—43 were performed to show the pattern of CLZ—43 mRNA expression (FIG. 4A-F). In situ hybridization was performed on free-floating coronal sections (25 μM thick) with an ^35S-labeled, single-stranded antisense cRNA probe of CLZ—43. Coronal sections were hybridized at 55° C for 16 hour with an ^35S-labeled, single-stranded antisense cRNA probe of CLZ—43 at 10^7 cpm/ml. The probe was synthesized from the 3′-ended cDNA TOGA™ clone using the Maxiscript Transcription Kit (Ambion, Austin, Tex.). Excess probe was removed by washing with 2×SSC (I×SSC=[…]) containing 14 mM β-mercaptoethanol (30 minutes), followed by incubation with 4 μg/ml ribonuclease in 0.5 M NaCl/0.05 M EDTA/0.05 M Tris-HCl, pH 7.5, for 1 hour at 37° C. High stringency washes were carried out at 55° C. for 2 hours in 0.5×SSC/50% formamide/0.01 M β-mercaptoethanol, and then at 68° C. for 1 hour in 0.1×SSC/0.01 M β-mercaptoethanol/0.5% sarkosyl. […]
To investigate additional sites of apoD induction, in situ hybridization analysis was performed on brains from saline- and clozapine-treated mice. […] Increases in apoD expression were also detected in white matter tracts, predominantly the corpus callosum (cc), anterior commissure, internal capsule (ic) and optic tract (opt). […]

CLZ_5 (apoD) mRNA = assay: Real Time PCR validation of CLZ_5 (apoD); format: in vivo, mouse; settings: clozapine or haloperidol treated mice
apoD mRNA [8] = assay: apoD mRNA expression in mouse brain after 5HT2 antagonists (preliminary results); format: in vivo

CN1CC[C@]23c4c5ccc(O)c4O[C@H]2[C@@H](O)C=C[C@H]3[C@H]1C5 [morphine]
CLZ_40 expression in striatum, TOGA ([1]; acute morphine 10 mg/kg i.p., withdrawal (naltrexone 1 mg/kg in morphine-tolerant mice)): downregulated in withdrawal striatum but not acutely treated striatum
CLZ_40 expression in amygdala, TOGA ([1]; acutely treated (morphine 10 mg/kg i.p., 4 hours)): slightly upregulated
CLZ_40 expression in amygdala, TOGA ([1]; chronically treated (75 mg pellet, 3 days) and withdrawal): increasingly upregulated

O=C(CCCN1CCC(O)(c2ccc(Cl)cc2)CC1)c1ccc(F)cc1 [haloperidol]
CLZ_44 expression, Northern [2]: up-regulated
CLZ_43 TOGA profile for the haloperidol response [3]: 1.08 fold
decrease in expression of CLZ_40, Real Time PCR [4]: 0.66 fold
CLZ_43 expression, TOGA and Real Time PCR [5]: not significantly responsive
increase in expression of mouse homolog to human KIAA1451, Real Time PCR [6]: 2.57 fold
apoD mRNA, in situ hybridization (apoD mRNA [7]): did not reveal substantial increases
increase in expression of CLZ_5 (apoD), Real Time PCR (CLZ_5 (apoD) mRNA): 1.75 fold

CN1CCN(C2=Nc3cc(Cl)ccc3Nc3ccccc32)CC1 [clozapine]
decrease in expression of CLZ_40, Real Time PCR [4]: 0.37 fold
increase in expression of mouse homolog to human KIAA1451, Real Time PCR [6]: 2.09 fold

O=C(c1ccc(F)cc1)C1CCN(CCn2c(=O)[nH]c3ccccc3c2=O)CC1 [ketanserin]
CLZ_44 expression, Northern [2]: up-regulated
apoD mRNA expression in mouse brain (apoD mRNA [8]): apparent upregulation
